Assay results: US10709692B2, “Isoxazolidine derived inhibitors of receptor interacting protein kinase 1 (RIPK1)” (Denali Therapeutics Inc., priority 2015, dated 2020)
Where “and” joins values, the source holds several entries; their conditions need not be identical. Equal entries are not always repeated.

Columns and labels:
[1] = biological target: T1, receptor interacting protein kinase 1 (GST-hRIPK1 (8-327)) (Homo sapiens, UniProt Q13546); assay: ADP-Glo luminescence assay, RIPK1 autophosphorylation; format: biochemical; details: 1.5 μg/mL GST-hRIPK1 (8-327), 50 μM ATP, 3 hours at room temperature
T1 construct: GST-hRIPK1 (8-327) enzyme was generated by Proteros GmbH by Baculovirus expression system
T1 sequence (Q13546 8-327): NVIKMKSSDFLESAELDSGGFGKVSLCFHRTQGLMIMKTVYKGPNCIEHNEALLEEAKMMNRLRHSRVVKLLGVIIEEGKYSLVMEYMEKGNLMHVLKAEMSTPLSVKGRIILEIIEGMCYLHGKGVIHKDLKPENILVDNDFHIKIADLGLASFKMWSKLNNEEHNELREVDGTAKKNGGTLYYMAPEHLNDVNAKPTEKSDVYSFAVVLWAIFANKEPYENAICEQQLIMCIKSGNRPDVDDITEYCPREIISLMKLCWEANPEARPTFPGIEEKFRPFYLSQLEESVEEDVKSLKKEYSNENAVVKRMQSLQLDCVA
Description: (§1) Compound potency at receptor interacting protein kinase 1 and selectivity at receptor interacting protein kinase 2 and receptor interacting protein kinase 3 was determined in autophosphorylation mode, using an ADP-Glo luminescence assay, which measures the conversion of ATP to ADP.
(§2) GST-hRIPK1 (8-327) enzyme was generated by Proteros GmbH by Baculovirus expression system. GST-hRIPK2 (1-299) and GST-hRIPK3 (1-518) enzymes were purchased from SignalChem. Test compounds were diluted in DMSO and 0.1 μL of solution was dispensed to each well of a 384-well white solid microplates. The assay buffer was 50 mM HEPES pH 7.5, 50 mM NaCl, 30 mM MgCl2. The buffer was supplemented with 0.02% CHAPS, 0.01% of Pluronic F127, 0.1 mg/mL BSA and 1 mM DTT. Only for receptor interacting protein kinase 1 5 mM MnCl2, was included in the assay buffer on the day of the experiment. The enzymatic reaction consisted of 1.5 μg/mL GST-hRIPK1 (8-327) and 50 μM ATP for receptor interacting protein kinase 1, 0.4 μg/mL GST-hRIPK2 (1-299) and 150 μM ATP, 0.4 μg/mL GST-hRIPK3 (1-518) and 15 μM ATP. 5 μL of enzyme and 5 μL of ATP were added to the plate at twice the final assay concentration and incubated at room temperature for 3 hours. Following this reaction, 10 μL of ADP-Glo reagent (Promega) was added to each well and incubated for 40 minutes at room temperature. This stops the kinase reaction and depletes any remaining ATP. 20 μL of ADP-Glo detection reagent was then added to each well and incubated at room temperature for at least 15 minutes. The detection reagent converts ADP to ATP and introduces luciferase and luciferin to detect ATP. The luminescence is then measured with the Envision (PerkinElmer) plate reader. Test compound inhibition was expressed as percent inhibition of internal assay controls. For concentration response curves, normalized data is fit and pIC50 determined using XL-fit (IDBS) for Excel. The pIC50 were averaged to determine a mean value, for a minimum of two independent experiments.
as §1, with “Certain compounds were tested in the following. Compound” for “Compound”, “assay (Berger S. B. et al. (2015) Cell Death Discovery, 1: 15009),” for “assay,”
GST-hRIPK1 (8-327) enzyme was generated by Proteros GmbH by Baculovirus expression system.
as §2, with “Test” for “GST-hRIPK1 (8-327) enzyme was generated by Proteros GmbH by Baculovirus expression system. GST-hRIPK2 (1-299) and GST-hRIPK3 (1-518) enzymes were purchased from SignalChem. Test”, “microplate.” for “microplates.”, “comprised” for “consisted of”, “1” for “1, 0.4 μg/mL GST-hRIPK2 (1-299) and 150 μM ATP, 0.4 μg/mL GST-hRIPK3 (1-518)”, “IC50” for “pIC50”, “experiments. […]” for “experiments.”

[2] = biological target: T1, receptor interacting protein kinase 1 (GST-hRIPK1 (8-327)); assay: Fluorescent Polarization Binding (FP Binding) assay; details: 10 nM GST-hRIPK1 (8-327), 5 nM fluorescent-labeled ligand, 30 min at RT
Outline: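 Displacement of 5 nM fluorescent ligand from 10 nM GST-hRIPK1 (8-327), 30 min at room temperature in pH 7.5 HEPES buffer, 1% DMSO. Fluorescence polarization read (ex 531/em 595 nm); IC50 fitted from percent inhibition and averaged over at least two independent experiments.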

| SMILES | IC50 [1] | IC50 [2] |
| --- | --- | --- |
| O=C(N1OCC[C@H]1c1ccccc1)C1(O)CC1 [Compound 10, 1-[(3S)-3-Phenyl-1,2-oxazolidine-2-carbonyl]cyclopropan-1-ol] | > 10 µM |  |
| Cn1cc([C@@H]2CCON2C(=O)C(C)(C)C)cn1 (single isomer, unassigned) [Compound 106] | < 1 µM | < 1 µM |
| O=C(C1CC1)N1OCC[C@H]1c1ccccc1 [Compound 12, (3S)-2-Cyclopropanecarbonyl-3-phenyl-1,2-oxazolidine] | < 1 µM | < 1 µM |
| CC(C)(C#N)C(=O)N1OCC[C@H]1c1ccccc1 [Compound 17, 2,2-Dimethyl-3-oxo-3-[(3S)-3-phenyl-1,2-oxazolidin-2-yl]propanenitrile] | < 1 µM | < 1 µM |
| COCC(=O)N1OCC[C@H]1c1ccccc1 [Compound 13, 2-Methoxy-1-[(3S)-3-phenyl-1,2-oxazolidin-2-yl]ethan-1-one] | 1 to 10 µM |  |
| CC(C)(C)C(=O)N1OCC[C@H]1c1ccccc1F [Compound 72] | < 1 µM | < 1 µM |
| CC(C)(C)C(=O)N1OCCC1c1cccnc1F (stereo not drawn) [Compound 81, 1-(3-(2-fluoropyridin-3-yl)isoxazolidin-2-yl)-2,2-dimethylpropan-1-one] | < 1 µM | < 1 µM |
| CC(C)(C)C(=O)N1OCC[C@H]1c1ccc(C#N)cc1 [Compound 87, 4-[(3S)-2-(2,2-dimethylpropanoyl)-1,2-oxazolidin-3-yl]benzonitrile] | < 1 µM | < 1 µM |
| CC(C)(O)C(=O)N1OCC[C@H]1c1ccccc1 [Compound 19, 2-Hydroxy-2-methyl-1-[(3S)-3-phenyl-1,2-oxazolidin-2-yl]propan-1-one] | < 1 µM | < 1 µM |
| O=C(Nc1ccccc1)N1OCC[C@H]1c1ccccc1 [Compound 4, (3S)—N,3-diphenyl-1,2-oxazolidine-2-carboxamide] | < 1 µM | < 1 µM |
| CC1(C(=O)N2OCC[C@H]2c2ccccc2)CC1 [Compound 20, (3S)-2-(1-Methylcyclopropanecarbonyl)-3-phenyl-1,2-oxazolidine] | < 1 µM | < 1 µM |
| O=C(CO)N1OCC[C@H]1c1ccccc1 [Compound 9, 2-hydroxy-1-[(3S)-3-phenyl-1,2-oxazolidin-2-yl]ethan-1-one] | > 10 µM |  |
| CC(C)(C)C(=O)N1OCCC1c1ccc(F)nc1 (stereo not drawn) [Compound 70] | < 1 µM | < 1 µM |
| CC(C)(C)NC(=O)N1OCC[C@H]1c1ccccc1 [Compound 5, (3S)—N-tert-Butyl-3-phenyl-1,2-oxazolidine-2-carboxamide] | 1 to 10 µM |  |
| COC(C)(C)C(=O)N1OCC[C@H]1c1ccccc1 [Compound 80, 2-Methoxy-2-methyl-1-[(3S)-3-phenyl-1,2-oxazolidin-2-yl]propan-1-one] | < 1 µM | < 1 µM |
| CC(C)(C)C(=O)N1OCC[C@@H]1c1ccccc1 [Compound 84, (R)-2,2-dimethyl-1-(3-phenylisoxazolidin-2-yl)propan-1-one] | > 10 µM |  |

| SMILES | IC50 [1] | IC50 [2] |
| --- | --- | --- |
| CC(C)(C)C(=O)N1OCC[C@H]1c1cccc(F)c1 (stereo in doubt) [Compound 23, 1-[3-(3-Fluorophenyl)-1,2-oxazolidin-2-yl]-2,2-dimethylpropan-1-one] | < 1 µM | < 1 µM |
| CC(C)(C)OC(=O)N1OCC[C@H]1c1ccccc1 [Compound 22, tert-Butyl (3S)-3-phenyl-1,2-oxazolidine-2-carboxylate] | 1 to 10 µM |  |
| CC(C)(C)C(=O)N1OCC[C@H]1c1cncc(C#N)c1 [Compound 108, 5-[(3S)-2-(2,2-dimethylpropanoyl)-1,2-oxazolidin-3-yl]pyridine-3-carbonitrile] | < 1 µM | < 1 µM |
| CN(C)C(=O)N1OCC[C@H]1c1ccccc1 [Compound 6, (3S)—N,N-dimethyl-3-phenyl-1,2-oxazolidine-2-carboxamide] | 1 to 10 µM |  |
| CC(C)(C(=O)N1OCC[C@H]1c1ccc(F)cc1)C(F)F [Compound 101, 3,3-difluoro-1-[(3S)-3-(4-fluorophenyl)-1,2-oxazolidin-2-yl]-2,2-dimethylpropan-1-one] | < 1 µM | < 1 µM and 0.008 µM |
| O=C(c1onc2ccccc12)N1OCC[C@H]1c1ccccc1 [Compound 18, 3-[(3S)-3-phenyl-1,2-oxazolidine-2-carbonyl]-2,1-benzoxazole] | < 1 µM | < 1 µM |
| CC1(C(=O)N2OCC[C@H]2c2ccccc2)COC1 [Compound 8, (3S)-2-(3-Methyloxetane-3-carbonyl)-3-phenyl-1,2-oxazolidine] | < 1 µM | < 1 µM |
| CC(C)(C)C(=O)N1OCC[C@@H]1c1ccccc1F [Compound 71] | < 1 µM | < 1 µM |
| C[C@@H](O)C(=O)N1OCC[C@H]1c1ccccc1 [Compound 14, (2R)-2-Hydroxy-1-[(3S)-3-phenyl-1,2-oxazolidin-2-yl]propan-1-one] | > 10 µM |  |
| CC(C)(C(=O)N1OCC[C@H]1c1ccc(C#N)cc1)C(F)F [Compound 88, 4-[(3S)-2-(3,3-difluoro-2,2-dimethylpropanoyl)-1,2-oxazolidin-3-yl]benzonitrile] | < 1 µM | < 1 µM and 0.016 µM |
| CC(C)C(=O)N1OCC[C@H]1c1ccccc1 [Compound 78, 2-Methyl-1-[(3S)-3-phenyl-1,2-oxazolidin-2-yl]propan-1-one] | < 1 µM | < 1 µM |
| Cn1c(C#N)ccc1C(=O)N1OCC[C@@H]1c1ccccc1 [Compound 85, (R)-1-methyl-5-(3-phenylisoxazolidine-2-carbonyl)-1H-pyrrole-2-carbonitrile] | > 10 µM |  |
| CC(C)(C)OC(=O)N1OCCC1c1ccccc1 (stereo not drawn) [Compound 83, tert-butyl 3-phenylisoxazolidine-2-carboxylate] | 1 to 10 µM |  |
| O=C(C1COC1)N1OCC[C@H]1c1ccccc1 [Compound 11, (3S)-2-(Oxetane-3-carbonyl)-3-phenyl-1,2-oxazolidine] | 1 to 10 µM |  |
| Cn1c(C#N)ccc1C(=O)N1OCCC1c1c(F)cccc1Cl (racemic) [Compound 3, 5-[3-(2-chloro-6-fluorophenyl)-1,2-oxazolidine-2-carbonyl]-1-methyl-1H-pyrrole-2-carbonitrile] | < 1 µM |  |
| O=C(N1CCCC1)N1OCC[C@H]1c1ccccc1 [Compound 7, (3S)-3-phenyl-2-(pyrrolidine-1-carbonyl)-1,2-oxazolidine] | 1 to 10 µM |  |
